Reference: ChEMBL document CHEMBL1201862, “PubChem BioAssay data set” (2004)
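Where inhibition never reached the appropriate level, the endpoint shown equals the highest concentration tested. Otherwise, values were interpolated linearly from a five-concentration, 48-hour dose response in 96-well plates. At the GI50, growth is halved.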 The source made the active and inactive calls. Cut-off read from the data, not from the text of the source: active = GI50 up to about 1.1 µM and inactive = higher.

What was measured:
Experiment in all cases: inhibition of tumour cell growth, NCI panel, 48 h
U-251 = test system: U-251
OVCAR-5 = test system: OVCAR-5
SK-MEL-2 = test system: SK-MEL-2
OVCAR-8 = test system: OVCAR-8
CCRF-CEM = test system: CCRF-CEM
IGROV-1 = test system: IGROV-1
A498 = test system: A498
HOP-92 = test system: HOP-92
SF-539 = test system: SF-539
UACC-62 = test system: UACC-62
SK-MEL-5 = test system: SK-MEL-5
K562 = test system: K562
SW-620 = test system: SW-620
OVCAR-4 = test system: OVCAR-4
Malme-3M = test system: Malme-3M
HL-60 = test system: HL-60
EKVX = test system: EKVX
SF-295 = test system: SF-295
DMS-114 = test system: DMS-114
786-0 = test system: 786-0
CAKI-1 = test system: CAKI-1
UO-31 = test system: UO-31
TK-10 = test system: TK-10
NCI-H522 = test system: NCI-H522
SK-MEL-28 = test system: SK-MEL-28
HOP-18 = test system: HOP-18
MOLT-4 = test system: MOLT-4
SF-268 = test system: SF-268
RPMI-8226 = test system: RPMI-8226
SNB-19 = test system: SNB-19
COLO 205 = test system: COLO 205
KM-20L2 = test system: KM-20L2
A549 = test system: A549
NCI-H23 = test system: NCI-H23
KM12 = test system: KM12
SR = test system: SR
HT-29 = test system: HT-29
RXF 393 = test system: RXF 393
HCT-116 = test system: HCT-116
SN12C = test system: SN12C
OVCAR-3 = test system: OVCAR-3
HCT-15 = test system: HCT-15
SK-OV-3 = test system: SK-OV-3
LXFL 529 = test system: LXFL 529
M14 = test system: M14
UACC-257 = test system: UACC-257
NCI-H460 = test system: NCI-H460
HOP-62 = test system: HOP-62
SNB-78 = test system: SNB-78
DMS-273 = test system: DMS-273
DLD-1 = test system: DLD-1
HCC 2998 = test system: HCC 2998
LOX IMVI = test system: LOX IMVI
XF498 = test system: XF498

`Cc1c(/C=N/NS(=O)(=O)c2ccccc2)no[n+]1[O-]` was tested, and the GI50 (U-251) was > 100 µM (inactive), the GI50 (OVCAR-5) was > 100 µM (inactive) and the GI50 (SK-MEL-2) was > 100 µM (inactive). The GI50 (OVCAR-8) was > 100 µM (inactive), the GI50 (CCRF-CEM) was > 100 µM (inactive) and the GI50 (IGROV-1) was > 100 µM (inactive). For the same compound, the GI50 (A498) was > 100 µM (inactive), the GI50 (HOP-92) was > 100 µM (inactive) and the GI50 (SF-539) was > 100 µM (inactive). For the same compound, the GI50 (UACC-62) was > 100 µM (inactive), the GI50 (SK-MEL-5) was > 100 µM (inactive) and the GI50 (K562) was > 100 µM (inactive). The GI50 (SW-620) was > 100 µM (inactive), the GI50 (OVCAR-4) was > 100 µM (inactive) and the GI50 (Malme-3M) was > 100 µM (inactive). For the same compound, the GI50 (HL-60) was > 100 µM (inactive), the GI50 (EKVX) was > 100 µM (inactive) and the GI50 (SF-295) was > 100 µM (inactive). The GI50 (DMS-114) was > 100 µM (inactive), the GI50 (786-0) was > 100 µM (inactive) and the GI50 (CAKI-1) was > 100 µM (inactive). For the same compound, the GI50 (UO-31) was 2.92 µM (inactive), the GI50 (TK-10) was > 100 µM (inactive) and the GI50 (NCI-H522) was > 100 µM (inactive). For the same compound, the GI50 (SK-MEL-28) was > 100 µM (inactive), the GI50 (HOP-18) was > 100 µM (inactive) and the GI50 (MOLT-4) was > 100 µM (inactive). The GI50 (SF-268) was > 100 µM (inactive), the GI50 (RPMI-8226) was > 100 µM (inactive) and the GI50 (SNB-19) was 37.9 µM (inactive). The GI50 (COLO 205) was > 100 µM (inactive), the GI50 (KM-20L2) was > 100 µM (inactive) and the GI50 (A549) was > 100 µM (inactive). For the same compound, the GI50 (NCI-H23) was > 100 µM (inactive), the GI50 (KM12) was > 100 µM (inactive) and the GI50 (SR) was > 100 µM (inactive). The GI50 (HT-29) was > 100 µM (inactive), the GI50 (RXF 393) was > 100 µM (inactive) and the GI50 (HCT-116) was > 100 µM (inactive). For the same compound, the GI50 (SN12C) was > 100 µM (inactive), the GI50 (OVCAR-3) was > 100 µM (inactive) and the GI50 (HCT-15) was > 100 µM. The GI50 (SK-OV-3) was > 100 µM (inactive), the GI50 (LXFL 529) was > 100 µM (inactive) and the GI50 (M14) was > 100 µM (inactive).

In the case of `CC(=O)Oc1cc(Cl)c(OC(C)=O)c2c(OC(C)=O)c(C)c(O[Si](C)(C)C(C)(C)C)cc12`, the GI50 (U-251) is reported as 2.32 µM (inactive), the GI50 (SK-MEL-2) is reported as 17.9 µM (inactive) and the GI50 (OVCAR-8) is reported as 2.52 µM (inactive). For the same compound, the GI50 (CCRF-CEM) was 2.54 µM (inactive), the GI50 (IGROV-1) was 3.64 µM (inactive) and the GI50 (UACC-257) was 3.23 µM (inactive). The GI50 (A498) was 2.09 µM (inactive), the GI50 (HOP-92) was 7.52 µM (inactive) and the GI50 (SF-539) was 14.5 µM (inactive). The GI50 (SK-MEL-5) was 4.41 µM (inactive), the GI50 (NCI-H460) was 3.79 µM (inactive) and the GI50 (HOP-62) was 19.1 µM (inactive). For the same compound, the GI50 (K562) was 3.22 µM (inactive), the GI50 (SW-620) was 2.8 µM (inactive) and the GI50 (OVCAR-4) was 13.2 µM (inactive). The GI50 (HL-60) was 2.84 µM (inactive), the GI50 (EKVX) was 18.7 µM (inactive) and the GI50 (SF-295) was 11 µM (inactive). For the same compound, the GI50 (DMS-114) was 3 µM (inactive), the GI50 (786-0) was 14.9 µM (inactive) and the GI50 (CAKI-1) was 16 µM (inactive). For the same compound, the GI50 (UO-31) was 13.5 µM (inactive), the GI50 (TK-10) was 5.31 µM (inactive) and the GI50 (NCI-H522) was 5.07 µM (inactive). For the same compound, the GI50 (SK-MEL-28) was 3.05 µM (inactive), the GI50 (MOLT-4) was 3.31 µM (inactive) and the GI50 (SF-268) was 11.5 µM (inactive). The GI50 (RPMI-8226) was 2.93 µM (inactive), the GI50 (SNB-78) was 3.12 µM (inactive) and the GI50 (DMS-273) was 5.47 µM (inactive). The GI50 (SNB-19) was 12.8 µM (inactive), the GI50 (COLO 205) was 15.1 µM (inactive) and the GI50 (KM-20L2) was 17.4 µM (inactive). The GI50 (A549) was 5.3 µM (inactive), the GI50 (NCI-H23) was 4.18 µM (inactive) and the GI50 (KM12) was 12.8 µM (inactive). The GI50 (SR) was 3.62 µM (inactive), the GI50 (DLD-1) was 1.85 µM (inactive) and the GI50 (HCC 2998) was 4.46 µM (inactive). For the same compound, the GI50 (RXF 393) was 3.28 µM (inactive), the GI50 (LOX IMVI) was 4.01 µM (inactive) and the GI50 (HCT-116) was 3.35 µM (inactive). For the same compound, the GI50 (SN12C) was 11.1 µM (inactive), the GI50 (XF498) was 17.5 µM (inactive) and the GI50 (OVCAR-3) was 15.6 µM (inactive). The GI50 (HCT-15) was 4.76 µM and the GI50 (M14) was 5.7 µM (inactive).
